Where a SMILES comes first, the peptide text is derived from it. [ ]: non-standard residue; d: D form. The star is where a group is joined. Sta = CC(C)C[C@H](N)[C@@H](O)CC(=O)O; Isovaleryl = CC(C)CC(=O)*
The compounds below were run on KCC2 expression (KCC2-2A-luciferase reporter) (assay: KCC2-2A-luciferase reporter compound screening with RTT KCC2 reporter neurons). Details: MECP2-null RTT human KCC2 reporter neurons; LINCS, SMART, ICCB libraries; Luc/CTG normalized to in-plate DMSO; hit = B score >3.
Type: cell-based, human
Experimental: The RTT KCC2-2A-luciferase reporter neurons were treated with the test compounds from the LINCS kinase inhibitor library and IRSF SMART compound library and incubated before being lysed. The cell lysate was divided into two parts to measure luciferase signal (KCC2 translation) and Cell-Titer Glow (CTG, amount of ATP). The luciferase signal was normalized to CTG for each well, and the Luc/CTG ratio was normalized to the in-plate DMSO negative control to calculate fold change ratio.
Additional screens for reporter activation in the MECP2-null RTT human KCC2 reporter neurons (isogenic to the WT reporter cells used above) were performed with the LINCS and SMART libraries as well as the ICCB known bioactive library and identified hits as compounds with B score >3.
The cells were dissociated with Accutase and resuspended in 10 ml neuronal differentiation medium to count cells. The cells were then diluted to the final density of 200,000 to 500,000 cells/ml. Matrigel was added to the cell suspension at a dilution ratio of 1:300 to promote cell adhesion after plating. AraC was added to cell suspension at the concentration of 2 μM to inhibit cell division. The cells were plated into 96-well plates with an automated cell seeding machine using the following protocol: The neuron flask was washed with PBS. The neurons were digested off the plate with Accutase for 30 minutes at 37° C. Next, the dissociated cells were collected and spun down at 750 rpm for 5 minutes. The cell pellet was dissociated by gentle trituration with P1000 pipet and the cells were resuspended with 10 ml of neuronal medium. Then, the cells were filtered through a 40 μm cell strainer (Falcon) to get rid of clumps. The resulting single-cell suspension was counted using a Countess automated cell counter (Invitrogen Countess Automated Cell Counter, Catalog no. C10227). The neurons were resuspended with neuronal medium to 10× of the destination density (100,000 cells to 400,000 cells per ml). The cells were plated with a multichannel pipette, or proceeded to the machine-plating protocol described below:
The day after cell seeding, small molecule compounds from the IRSF (International Rett Syndrome Foundation) library were prepared at a concentration of 1 mM and dispensed into a blank V-bottomed test plates at 2 μl per well. Compound solvent DMSO was included in every plate as control. Using a liquid handling robot, about 80 μl of culture medium were discarded. Neuronal medium in the volume of 200 μl was added to the V-bottom test plate that contained 2 μl of 1 mM compounds, and mixed with compounds by pipetting up-and-down 3 times. The medium that contained the 10 μM compounds was then applied to the neuronal cell culture and incubated for 2 weeks before cell lysis and luciferase assay were performed.
(§1) The cells were dissociated with Accutase, resuspended in 10 ml neuronal differentiation medium to count cells. the final cell seeding density was 20 k-40 k cells per well for 96-well plates, and ˜10 k cells per well for 384-well plates. Matrigel was added to the cell suspension at a dilution ratio of 1:300 to promote cell adhesion after plating. AraC were added to the cell suspension at the concentration of 0.5 μM to inhibit astroglial cell division. The cells were dispensed into 96-well or 384-well plates (Coming) using a BioTek EL406 plate dispenser. […] The neurons were incubated with the compounds at 37° C./5% CO2 for a week before the luciferase assay.
The cells used for luciferase assay were KCC2 reporter neurons differentiated for 4 weeks, and treated with drug in 96-well format for 2 weeks. Cell density was between 20 k-40 k cells per well.
On the day of the luciferase assay, the cells were washed with PBS for two times, and 100 μl of cell lysis buffer was applied to the washed cells. The cell plates were transferred to a rocker to shake for 10 minutes in order to fully lyse the cells.

| Structure (SMILES) | B Score |
| --- | --- |
| O=C1Nc2ccccc2/C1=C1/Nc2ccccc2C1=O [Indirubin, (3Z)-3-(3-Oxo-1,3-dihydro-2H-indol-2-ylidene)-1,3-dihydro-2H-indol-2-one] | 3.73 |
| O=c1cc(-c2ccc(O)c(O)c2)oc2cc(O)cc(O)c12 [Luteolin, 2-(3,4-Dihydroxyphenyl)-5,7-dihydroxy-4-chromenone] | 11.34 |
| O=c1cc(-c2ccccc2)oc2c(O)c(O)ccc12 [7,8-Dihydroxyflavone] | 4.01 |
| CC(C)CC(=O)N[C@H](C(=O)N[C@H](C(=O)N[C@@H](CC(C)C)[C@@H](O)CC(=O)N[C@@H](C)C(=O)N[C@@H](CC(C)C)[C@@H](O)CC(=O)O)C(C)C)C(C)C [Pepstatin, Isovalery-Val-Val-Sta-Ala-Sta] (Isovaleryl-VV[Sta]A[Sta]-OH) | 8.64 |
| COCc1nc2c([nH]1)c(=O)n(C)c(=O)n2CC(C)C [8-methoxymethyl-IBMX, 8-(Methoxymethyl)-1-methyl-3-(2-methylpropyl)-7H-purine-2,6-dione] | 4.8 |
| COc1cc2c(Oc3ccc(NC(=O)C4(C(=O)Nc5ccc(F)cc5)CC4)cc3F)ccnc2cc1OCCCN1CCOCC1 [Foretinib, N1′-[3-fluoro-4-[[6-methoxy-7-(3-morpholinopropoxy)-4-quinolyl]oxy]phenyl]-N1-(4-fluorophenyl)cyclopropane-1,1-dicarboxamide] | 4.05 |
| O=C(Nc1ccc(OC(F)(F)F)cc1)c1sccc1NCc1ccnc2ccccc12 [OSI-930, 3-[(4-quinolinylmethyl)amino]-N-[4-(trifluoromethoxy)phenyl]-2-thiophenecarboxamide] | 5.55 |
| O=C1CCc2c(ccc3ccccc23)O1 [Splitomycin, 1,2-Dihydro-3H-naphtho[2,1-b]pyran-3-one] | 9.79 |
| O=C(O)c1cccc(-c2noc(-c3ccccc3F)n2)c1 [Ataluren, 3-[5-(2-Fluorophenyl)-1,2,4-oxadiazol-3-yl]benzoic acid] | 7.43 |
| O=c1c(O)c(-c2ccc(O)cc2)oc2cc(O)cc(O)c12 [Kaempferol, 3,5,7-Trihydroxy-2-(4-hydroxyphenyl)-4H-chromen-4-one] | 3.92 |
| O=c1c(O)c(-c2ccc(O)c(O)c2)oc2cc(O)cc(O)c12 [Quercetin-2H2O, 2-(3,4-dihydroxyphenyl)-3,5,7-trihydroxy-4H-chromen-4-one] | 7.76 |
| CCOc1ccn(-c2ccc(F)cc2)c(=O)c1C(=O)Nc1ccc(Oc2ccnc(N)c2Cl)c(F)c1 [BMS 777607, N-(4-(2-amino-3-chloropyridin-4-yloxy)-3-fluorophenyl)-4-ethoxy-1-(4-fluorophenyl)-2-oxo-1,2-dihydropyridine-3-carboxamide] | 11.97 |
| NC[C@H](CC(=O)O)c1ccc(Cl)cc1 [(R)-Baclofen] | 6.65 |
| COc1ccc(CNC(=O)Nc2ncc([N+](=O)[O-])s2)cc1 [AR-AO14418, N-(4-Methoxybenzyl)-N'-(5-nitro-1,3-thiazol-2-yl)urea] | 8.69 |
| O=c1c(-c2ccc(O)cc2)coc2cc(O)cc(O)c12 [Genistein, 4',5,7-Trihydroxyisoflavone] | 5.11 |
| O=c1c(-c2ccc(O)cc2)coc2cc(O)ccc12 [Daidzein, 7-hydroxy-3-(4-hydroxyphenyl)-4H-chromen-4-one] | 4.64 |
| CCC(C)C(CC)C(N)=O (stereo not drawn) [Valnoctamide, 2-ethyl-3-methyl-pentanamide] | 14.99 |
| CC(C)[C@@H]1NC(=O)[C@H](C)OC(=O)[C@@H](C(C)C)NC(=O)[C@@H](C(C)C)OC(=O)[C@H](C(C)C)NC(=O)[C@H](C)OC(=O)[C@@H](C(C)C)NC(=O)[C@@H](C(C)C)OC(=O)[C@H](C(C)C)NC(=O)[C@H](C)OC(=O)[C@@H](C(C)C)NC(=O)[C@@H](C(C)C)OC1=O [Valinomycin, Cyclo-(L-Val-D-HyIva-D-Val-L-Lac-)3] | 4.49 |

Each compound was assayed on KCC2 expression (KCC2-2A-luciferase reporter) (assay: KCC2-2A-luciferase reporter compound screening with wild type KCC2 reporter neurons). Details: WT human KCC2 reporter neurons; LINCS 0.5 μM, IRSF/SMART and ICCB 10 μM, one week; Luc/CTG normalized to in-plate DMSO; hit = B score >3.
Type: cell-based
Excerpt: In addition, CRISPR/Cas9 genome editing technology was utilized to insert a 2A-luciferase reporter gene directly before the stop codon of the endogenous KCC2 locus in human ES cells, thus creating wild type (WT) cells isogenic to the MECP2-null RTT human KCC2 reporter neurons. KCC2 expression reporter human neurons were differentiated from the gene-targeted ES cells and utilized as the substrate for unbiased compound screening (FIG. 6A; see also FIG. 1A).
Gene-targeted KCC2 reporter cells were used in a HTS pipeline to screen for small molecule compounds that enhance KCC2 gene expression (FIG. 1B; note that reporter neurons were adapted to 384 well format for some screens, and the same workflow was used both for WT KCC2 reporter neurons and RTT KCC2 reporter neurons). Six replicate screens were performed in WT KCC2 reporter neurons using the LINCS and SMART libraries as well as the ICCB known bioactive library (FIG. 6B).
as §1
For some screens, on the day of the luciferase assay, the cells were washed with PBS three times using a BioTek EL406 plate washer. Cell lysis buffer (Promega, E1941, 1:5 diluted with water) was added at a volume of 100 μl per well for 96-well plates and 30 μl per well for 384-well plates, and incubated at room temperature for 10 minutes to lyse the cells. A fraction of the cell lysate (30 ul for 96-well, 5 ul for 384-well) was transferred to a new white, opaque plate and Cell Titer-Glo (CTG, Promega, G7572, diluted 2:5 in water) was added and incubated for 20 minutes at room temperature. CTG measures cellular ATP levels as a surrogate for cell viability. The reporter luciferase signal was assayed in the original source plate using Bright-Glo reagent per the manufacturer's protocol (Promega, E1501, 10 ul for 96-well plates, 3 ul for 384-well plates). Assay readouts were performed on a Tecan M1000 Infinite plate reader. For data analysis, the luciferase signal was normalized to the CTG signal to control for number of live cells per well. The Luc/CTG ratio data were then normalized to the in-plate DMSO control to calculate the signal induction fold change. Screening data were processed with CellHTS2 software package to calculate B-score (94)

| Structure (SMILES) | B Score |
| --- | --- |
| CN(C)c1ccc(C=C2C(=O)Nc3ccccc32)cc1 [SU-4312, 3-(4-Dimethylaminobenzylidenyl)-2-indolinone] | 3.55 |
| O=C1Nc2ccccc2/C1=C1/Nc2ccccc2C1=O [Indirubin, (3Z)-3-(3-Oxo-1,3-dihydro-2H-indol-2-ylidene)-1,3-dihydro-2H-indol-2-one] | 3.73 |
| O=c1cc(-c2ccccc2)oc2c(O)c(O)ccc12 [7,8-Dihydroxyflavone] | 4.01 |
| COCc1nc2c([nH]1)c(=O)n(C)c(=O)n2CC(C)C [8-methoxymethyl-IBMX, 8-(Methoxymethyl)-1-methyl-3-(2-methylpropyl)-7H-purine-2,6-dione] | 4.8 |
| Cc1nc2n(c(=O)c1CCN1CCC(c3noc4cc(F)ccc34)CC1)CCCC2O (stereo not drawn) [Paliperidone, 9-Hydroxyrisperidone] | 11.03 |
| COc1cc2c(Oc3ccc(NC(=O)C4(C(=O)Nc5ccc(F)cc5)CC4)cc3F)ccnc2cc1OCCCN1CCOCC1 [Foretinib, N1′-[3-fluoro-4-[[6-methoxy-7-(3-morpholinopropoxy)-4-quinolyl]oxy]phenyl]-N1-(4-fluorophenyl)cyclopropane-1,1-dicarboxamide] | 4.05 |

Each compound was assayed on KCC2 expression (assay: Western blot of KCC2 in cultured human RTT neurons). Details: RTT neurons; additional application to Resveratrol.
Type: cell-based
Experimental: Protein samples were collected from cultured brain slices or cultured neurons in 12-well format with RIPA lysis buffer (in mM: 150 NaCl, 25 Tris-HCl, 1 EDTA, 1% NP-40, 1% sodium deoxycholate, 0.1% SDS, with protein kinase inhibitor and protease inhibitor, pH adjusted to 7.6). A sonication step was applied to homogenize tissue and extract protein, followed by a 10 minute centrifugation at 4° C. […] The PVDF membrane was blocked for 30 minutes with 5% milk in TBS+0.1% Tween 20 (TBST), and incubated overnight at 4° C. with primary antibodies diluted in TBST-milk at the following concentrations: KCC2 (1:2000, Millipore), NKCC1 (1:1000, Iowa Hybridoma bank), α-Tubulin (1:4000, Abcam), GAPDH (1:3000, Abcam), Actin (1:2000, Sigma Aldrich #A2066). The membrane was rinsed with TBST three times to wash off excess antibodies, and then incubated in secondary HRP antibodies in TBST-milk at 1:5000 concentration.
The PVDF membrane was then stripped using the Re-blot plus strong solution (Millipore), and re-immunoblotted for NKCC1 (˜150 kDa) to acquire KCC2/NKCC1 ratio. The area and intensity of protein signal was determined using ImageJ. The relative KCC2 and NKCC1 expression were calculated by normalizing protein signal to GAPDH or Tubulin loading control.

| Structure (SMILES) | effect on Resveratrol-induced KCC2 expression enhancement |
| --- | --- |
| NC(=O)C1CCCc2c1[nH]c1ccc(Cl)cc21 (stereo not drawn) [EX-527] | blocked KCC2 expression enhancement |

Same assay, conditions: RTT neurons; co-application with Piperine

| Structure (SMILES) | effect on Piperine-induced KCC2 expression |
| --- | --- |
| O=C(Nc1ccc(S(=O)(=O)C(F)(F)F)cc1)C1=CCN(c2ncccc2C(F)(F)F)CC1 [A784168] | eliminated the KCC2-inducing effect of Piperine |

Same assay, conditions: cultured human RTT neurons; Western blot

| Structure (SMILES) | KCC2 expression |
| --- | --- |
| COc1ccc(C(=O)Nc2sc3c(c2C(N)=O)CCC3)cc1OC [FLT3 Inhibitor-1, 2-(3,4-dimethoxybenzamido)-5,6-dihydro-4H-cyclopenta[b]thiophene-3-carboxamide] | significant enhancement of KCC2 expression |

Source: patent publication US12053465B2, “KCC2 expression enhancing compounds and uses thereof” (Whitehead Institute for Biomedical Research, priority 2017, dated 2024)
